Measurements taken from ChEMBL document CHEMBL5303573, “Mapping human microbiome drug metabolism by gut bacteria and their genes” (Nature, 2019).

Experiments:
[1] = The drug is tested on Bifidobacterium breve strain: DSM20213 for biotransformation. The drug concentrations were measured before and after a 12-h incubation by liquid-chromatography-coupled mass spectrometry (LC–MS); conditions: 2 µM
[2] = The drug is tested on Eggerthella lenta strain: ATCC25559 for biotransformation. The drug concentrations were measured before and after a 12-h incubation by liquid-chromatography-coupled mass spectrometry (LC–MS); conditions: 2 µM
[3] = The drug is tested on Bacteroides caccae strain: ATCC43185 for biotransformation. The drug concentrations were measured before and after a 12-h incubation by liquid-chromatography-coupled mass spectrometry (LC–MS); conditions: 2 µM
[4] = The drug is tested on Eubacterium rectale strain: ATCC33656 for biotransformation. The drug concentrations were measured before and after a 12-h incubation by liquid-chromatography-coupled mass spectrometry (LC–MS); conditions: agathobacter rectalis, 2 µM
[5] = parabacteroides johnsonii, 12 h, 2 µM
Description: The drug is tested on Parabacteroides johnsonii strain: DSM18315 for biotransformation. The drug concentrations were measured before and after a 12-h incubation by liquid-chromatography-coupled mass spectrometry (LC–MS)

[6] = anaerostipes sp., 12 h, 2 µM
Description: The drug is tested on Anaerostipes sp. strain: fecal isolate for biotransformation. The drug concentrations were measured before and after a 12-h incubation by liquid-chromatography-coupled mass spectrometry (LC–MS)

[7] = victivallis vadensis, 12 h, 2 µM
Description: The drug is tested on Victivallis vadensis strain: ATCC BAA-548 for biotransformation. The drug concentrations were measured before and after a 12-h incubation by liquid-chromatography-coupled mass spectrometry (LC–MS)

CC(CN(C)C)CN1c2ccccc2CCc2ccccc21.O=C(O)/C=C\C(=O)O (configuration not stated) [TRIMIPRAMINE MALEATE]
Bacterial Biotransformation [1]: Compound NOT metabolized
Bacterial Biotransformation [2]: Compound NOT metabolized
Bacterial Biotransformation [3]: Compound NOT metabolized
Bacterial Biotransformation [4]: Compound NOT metabolized
Bacterial Biotransformation [5]: Compound NOT metabolized
Bacterial Biotransformation [6]: Compound NOT metabolized
Bacterial Biotransformation [7]: Compound NOT metabolized

CC[C@@]1(O)C(=O)OCc2c1cc1n(c2=O)Cc2cc3c(CN(C)C)c(O)ccc3nc2-1 [TOPOTECAN]
Bacterial Biotransformation [1]: Compound NOT metabolized
Bacterial Biotransformation [2]: Compound NOT metabolized
Bacterial Biotransformation [3]: Compound NOT metabolized
Bacterial Biotransformation [4]: Compound NOT metabolized
Bacterial Biotransformation [5]: Compound NOT metabolized
Bacterial Biotransformation [6]: Compound NOT metabolized
Bacterial Biotransformation [7]: Compound NOT metabolized

CS(=O)(=O)O.O.O.O.O=C1Cc2cc(CCN3CCN(c4nsc5ccccc45)CC3)c(Cl)cc2N1 [ZIPRASIDONE MESYLATE]
Bacterial Biotransformation [1]: Compound NOT metabolized
Bacterial Biotransformation [2]: Compound NOT metabolized
Bacterial Biotransformation [3]: Compound NOT metabolized
Bacterial Biotransformation [4]: Compound NOT metabolized
Bacterial Biotransformation [5]: Compound NOT metabolized
Bacterial Biotransformation [6]: Compound NOT metabolized
Bacterial Biotransformation [7]: Compound NOT metabolized

CNS(=O)(=O)Cc1ccc2[nH]cc(CCN(C)C)c2c1.O=C(O)CCC(=O)O [SUMATRIPTAN SUCCINATE]
Bacterial Biotransformation [1]: Compound NOT metabolized
Bacterial Biotransformation [3]: Compound NOT metabolized
Bacterial Biotransformation [4]: Compound NOT metabolized
Bacterial Biotransformation [5]: Compound NOT metabolized
Bacterial Biotransformation [6]: Compound NOT metabolized
Bacterial Biotransformation [7]: Compound NOT metabolized

CC(=O)CC(c1ccccc1)c1c(O)c2ccccc2oc1=O (configuration not stated) [WARFARIN]
Bacterial Biotransformation [1]: Compound NOT metabolized
Bacterial Biotransformation [2]: Compound NOT metabolized
Bacterial Biotransformation [3]: Compound NOT metabolized
Bacterial Biotransformation [4]: Compound NOT metabolized
Bacterial Biotransformation [5]: Compound NOT metabolized
Bacterial Biotransformation [6]: Compound NOT metabolized
Bacterial Biotransformation [7]: Compound NOT metabolized

COc1ccc(C(CN(C)C)C2(O)CCCCC2)cc1 (configuration not stated) [VENLAFAXINE]
Bacterial Biotransformation [1]: Compound NOT metabolized
Bacterial Biotransformation [2]: Compound NOT metabolized
Bacterial Biotransformation [3]: Compound NOT metabolized
Bacterial Biotransformation [4]: Compound NOT metabolized
Bacterial Biotransformation [5]: Compound NOT metabolized
Bacterial Biotransformation [6]: Compound NOT metabolized
Bacterial Biotransformation [7]: Compound NOT metabolized

CC(C)c1nc(N(C)S(C)(=O)=O)nc(-c2ccc(F)cc2)c1/C=C/[C@@H](O)C[C@@H](O)CC(=O)[O-].CC(C)c1nc(N(C)S(C)(=O)=O)nc(-c2ccc(F)cc2)c1/C=C/[C@@H](O)C[C@@H](O)CC(=O)[O-].[Ca+2] [ROSUVASTATIN CALCIUM]
Bacterial Biotransformation [1]: Compound NOT metabolized
Bacterial Biotransformation [4]: Compound NOT metabolized
Bacterial Biotransformation [6]: Compound NOT metabolized
Bacterial Biotransformation [7]: Compound NOT metabolized

CC(C)c1nc(CN(C)C(=O)N[C@H](C(=O)N[C@@H](Cc2ccccc2)C[C@H](O)[C@H](Cc2ccccc2)NC(=O)OCc2cncs2)C(C)C)cs1 [RITONAVIR]
Bacterial Biotransformation [1]: Compound NOT metabolized
Bacterial Biotransformation [2]: Compound NOT metabolized
Bacterial Biotransformation [3]: Compound NOT metabolized
Bacterial Biotransformation [5]: Compound NOT metabolized
Bacterial Biotransformation [6]: Compound NOT metabolized
Bacterial Biotransformation [7]: Compound NOT metabolized

CCCCc1nc(Cl)c(CO)n1Cc1ccc(-c2ccccc2-c2nn[nH]n2)cc1 [LOSARTAN]
Bacterial Biotransformation [2]: Compound NOT metabolized
Bacterial Biotransformation [4]: Compound NOT metabolized
Bacterial Biotransformation [5]: Compound metabolized
Bacterial Biotransformation [6]: Compound NOT metabolized
Bacterial Biotransformation [7]: Compound NOT metabolized

CCCCCNC(=N)N/N=C/c1c[nH]c2ccc(OC)cc12.O=C(O)/C=C\C(=O)O [TEGASEROD MALEATE]
Bacterial Biotransformation [1]: Compound NOT metabolized
Bacterial Biotransformation [3]: Compound NOT metabolized
Bacterial Biotransformation [4]: Compound NOT metabolized
Bacterial Biotransformation [5]: Compound NOT metabolized
Bacterial Biotransformation [6]: Compound NOT metabolized
Bacterial Biotransformation [7]: Compound NOT metabolized

CC1=C(CC(=O)O)c2cc(F)ccc2/C1=C\c1ccc([S+](C)[O-])cc1 (configuration not stated)
Bacterial Biotransformation [1]: Compound NOT metabolized
Bacterial Biotransformation [2]: Compound NOT metabolized
Bacterial Biotransformation [5]: Compound NOT metabolized
Bacterial Biotransformation [6]: Compound NOT metabolized
Bacterial Biotransformation [7]: Compound NOT metabolized

C#C[C@]1(OC(C)=O)CC[C@H]2[C@@H]3CCC4=C[C@@H](OC(C)=O)CC[C@@H]4[C@H]3CC[C@@]21C [ETHYNODIOL DIACETATE]
Bacterial Biotransformation [2]: Compound NOT metabolized
Bacterial Biotransformation [3]: Compound NOT metabolized
Bacterial Biotransformation [4]: Compound NOT metabolized
Bacterial Biotransformation [6]: Compound NOT metabolized
Bacterial Biotransformation [7]: Compound NOT metabolized

O=C(NCc1ccccc1)OCCO [BURAMATE]
Bacterial Biotransformation [2]: Compound NOT metabolized
Bacterial Biotransformation [3]: Compound NOT metabolized
Bacterial Biotransformation [4]: Compound NOT metabolized
Bacterial Biotransformation [5]: Compound NOT metabolized
Bacterial Biotransformation [6]: Compound NOT metabolized
Bacterial Biotransformation [7]: Compound NOT metabolized

CS(=O)(=O)O.OC(CCN1CCCCC1)(c1ccccc1)c1ccccc1 [PRIDINOL METHANESULFONATE]
Bacterial Biotransformation [1]: Compound NOT metabolized
Bacterial Biotransformation [2]: Compound NOT metabolized
Bacterial Biotransformation [3]: Compound NOT metabolized
Bacterial Biotransformation [4]: Compound NOT metabolized
Bacterial Biotransformation [6]: Compound NOT metabolized
Bacterial Biotransformation [7]: Compound NOT metabolized

C=CC[C@@H]1/C=C(\C)C[C@H](C)C[C@H](OC)[C@H]2O[C@@](O)(C(=O)C(=O)N3CCCC[C@H]3C(=O)O[C@H](/C(C)=C/[C@@H]3CC[C@@H](O)[C@H](OC)C3)[C@H](C)[C@@H](O)CC1=O)[C@H](C)C[C@@H]2OC.O [TACROLIMUS]
Bacterial Biotransformation [1]: Compound NOT metabolized
Bacterial Biotransformation [2]: Compound metabolized
Bacterial Biotransformation [4]: Compound metabolized
Bacterial Biotransformation [5]: Compound metabolized
Bacterial Biotransformation [6]: Compound metabolized
Bacterial Biotransformation [7]: Compound metabolized

CNNCc1ccc(C(=O)NC(C)C)cc1 [PROCARBAZINE]
Bacterial Biotransformation [1]: Compound NOT metabolized
Bacterial Biotransformation [3]: Compound NOT metabolized
Bacterial Biotransformation [4]: Compound NOT metabolized
Bacterial Biotransformation [5]: Compound metabolized
Bacterial Biotransformation [6]: Compound NOT metabolized
Bacterial Biotransformation [7]: Compound NOT metabolized

CCC(COC(=O)c1cc(OC)c(OC)c(OC)c1)(c1ccccc1)N(C)C.O=C(O)/C=C\C(=O)O (configuration not stated)
Bacterial Biotransformation [2]: Compound metabolized
Bacterial Biotransformation [3]: Compound NOT metabolized
Bacterial Biotransformation [4]: Compound metabolized
Bacterial Biotransformation [5]: Compound metabolized
Bacterial Biotransformation [6]: Compound metabolized
Bacterial Biotransformation [7]: Compound metabolized

Cc1ccc(-c2nc3ccc(C)cn3c2CC(=O)N(C)C)cc1 [ZOLPIDEM]
Bacterial Biotransformation [1]: Compound NOT metabolized
Bacterial Biotransformation [2]: Compound NOT metabolized
Bacterial Biotransformation [3]: Compound NOT metabolized
Bacterial Biotransformation [4]: Compound NOT metabolized
Bacterial Biotransformation [6]: Compound NOT metabolized
Bacterial Biotransformation [7]: Compound NOT metabolized

CCCCCCOC(=O)/N=C(/N)c1ccc(NCc2nc3cc(C(=O)N(CCC(=O)OCC)c4ccccn4)ccc3n2C)cc1.CS(=O)(=O)O [DABIGATRAN ETEXILATE MESYLATE]
Bacterial Biotransformation [2]: Compound NOT metabolized
Bacterial Biotransformation [3]: Compound NOT metabolized
Bacterial Biotransformation [4]: Compound NOT metabolized
Bacterial Biotransformation [6]: Compound NOT metabolized
Bacterial Biotransformation [7]: Compound NOT metabolized

CN(C)CCc1c[nH]c2ccc(Cn3cncn3)cc12.O=C(O)c1ccccc1 [RIZATRIPTAN BENZOATE]
Bacterial Biotransformation [1]: Compound NOT metabolized
Bacterial Biotransformation [2]: Compound NOT metabolized
Bacterial Biotransformation [3]: Compound NOT metabolized
Bacterial Biotransformation [7]: Compound NOT metabolized

N=C(N)NC(=O)Cc1c(Cl)cccc1Cl [GUANFACINE]
Bacterial Biotransformation [3]: Compound NOT metabolized
Bacterial Biotransformation [5]: Compound NOT metabolized
Bacterial Biotransformation [6]: Compound NOT metabolized
Bacterial Biotransformation [7]: Compound NOT metabolized

C[C@]12C=CC(=O)C=C1CC[C@@H]1[C@@H]2C(=O)C[C@@]2(C)[C@H]1CC[C@]2(O)C(=O)CO [PREDNISONE]
Bacterial Biotransformation [1]: Compound NOT metabolized
Bacterial Biotransformation [3]: Compound NOT metabolized
Bacterial Biotransformation [4]: Compound NOT metabolized
Bacterial Biotransformation [5]: Compound NOT metabolized
Bacterial Biotransformation [6]: Compound NOT metabolized
Bacterial Biotransformation [7]: Compound NOT metabolized

CCN(CC)CCCC(C)Nc1c2ccc(Cl)cc2nc2ccc(OC)cc12 (configuration not stated) [QUINACRINE]
Bacterial Biotransformation [1]: Compound NOT metabolized
Bacterial Biotransformation [2]: Compound NOT metabolized
Bacterial Biotransformation [6]: Compound NOT metabolized
Bacterial Biotransformation [7]: Compound NOT metabolized

CC(C)NCC(O)c1ccc(NS(C)(=O)=O)cc1 (configuration not stated) [SOTALOL]
Bacterial Biotransformation [1]: Compound NOT metabolized
Bacterial Biotransformation [2]: Compound NOT metabolized
Bacterial Biotransformation [3]: Compound NOT metabolized
Bacterial Biotransformation [5]: Compound NOT metabolized
Bacterial Biotransformation [6]: Compound NOT metabolized
Bacterial Biotransformation [7]: Compound NOT metabolized

CCCN(CCC)CCc1cccc2c1CC(=O)N2 [ROPINIROLE]
Bacterial Biotransformation [1]: Compound NOT metabolized
Bacterial Biotransformation [2]: Compound NOT metabolized
Bacterial Biotransformation [5]: Compound NOT metabolized
Bacterial Biotransformation [6]: Compound NOT metabolized
Bacterial Biotransformation [7]: Compound NOT metabolized
